PubChem BioAssay (NCI)
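In this assay, cells in 96-well plates receive the compound at five concentrations for 48 hours. Endpoints are linearly interpolated between the surrounding concentrations. GI50 marks 50% less growth. TGI: concentration producing complete growth inhibition.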

Key:
Test in all cases: NCI-60 cell line screen, 48 h
786-0 renal = test system: 786-0 renal
A498 renal = test system: A498 renal
A549 NSCLC = test system: A549 NSCLC
ACHN renal = test system: ACHN renal
BT-549 breast = test system: BT-549 breast
CAKI-1 renal = test system: CAKI-1 renal
CCRF-CEM leukemia = test system: CCRF-CEM leukemia
COLO 205 colon = test system: COLO 205 colon
DU-145 prostate = test system: DU-145 prostate
EKVX NSCLC = test system: EKVX NSCLC
HCC-2998 colon = test system: HCC-2998 colon
HCT-116 colon = test system: HCT-116 colon
HCT-15 colon = test system: HCT-15 colon
HL-60(TB) leukemia = test system: HL-60(TB) leukemia
HOP-62 NSCLC = test system: HOP-62 NSCLC
HOP-92 NSCLC = test system: HOP-92 NSCLC
HS 578T breast = test system: HS 578T breast
HT29 colon = test system: HT29 colon
IGROV1 ovarian = test system: IGROV1 ovarian
K-562 leukemia = test system: K-562 leukemia
KM12 colon = test system: KM12 colon
LOX IMVI melanoma = test system: LOX IMVI melanoma
M14 melanoma = test system: M14 melanoma
MALME-3M melanoma = test system: MALME-3M melanoma
MCF7 breast = test system: MCF7 breast
MDA-MB-231 breast = test system: MDA-MB-231 breast
MDA-MB-435 = test system: MDA-MB-435
MOLT-4 leukemia = test system: MOLT-4 leukemia
NCI-H226 lung = test system: NCI-H226 lung
NCI-H23 lung = test system: NCI-H23 lung
NCI-H460 lung = test system: NCI-H460 lung
NCI-H522 lung = test system: NCI-H522 lung
NCI/ADR-RES ovarian = test system: NCI/ADR-RES ovarian
OVCAR-3 ovarian = test system: OVCAR-3 ovarian
OVCAR-5 ovarian = test system: OVCAR-5 ovarian
OVCAR-8 ovarian = test system: OVCAR-8 ovarian
PC-3 prostate = test system: PC-3 prostate
RPMI-8226 leukemia = test system: RPMI-8226 leukemia
RXF 393 renal = test system: RXF 393 renal
SF-268 CNS = test system: SF-268 CNS
SF-295 CNS = test system: SF-295 CNS
SF-539 CNS = test system: SF-539 CNS
SK-MEL-2 melanoma = test system: SK-MEL-2 melanoma
SK-MEL-28 melanoma = test system: SK-MEL-28 melanoma
SK-MEL-5 melanoma = test system: SK-MEL-5 melanoma
SK-OV-3 ovarian = test system: SK-OV-3 ovarian
SN12C renal = test system: SN12C renal
SNB-19 CNS = test system: SNB-19 CNS
SNB-75 CNS = test system: SNB-75 CNS
SR leukemia = test system: SR leukemia
SW-620 colon = test system: SW-620 colon
T-47D breast = test system: T-47D breast
TK-10 renal = test system: TK-10 renal
U251 CNS = test system: U251 CNS
UACC-257 melanoma = test system: UACC-257 melanoma
UACC-62 melanoma = test system: UACC-62 melanoma
UO-31 renal = test system: UO-31 renal
OVCAR-4 ovarian = test system: OVCAR-4 ovarian

## Cn1cc(-c2nc3c(F)cc4[nH]ncc4c3c3c2CCCC3)c(C(F)(F)F)n1
786-0 renal
  GI50: 10.7 µM
  TGI: 27.7 µM
A498 renal
  GI50: 1.7 µM
  TGI: 4.88 µM
A549 NSCLC
  GI50: 5.7 µM
  TGI: 59.4 µM
ACHN renal
  GI50: 5.05 µM
  TGI: > 100 µM
BT-549 breast
  GI50: 2.62 µM
  TGI: 15.4 µM
CAKI-1 renal
  GI50: 3.33 µM
  TGI: > 100 µM
CCRF-CEM leukemia
  GI50: 4.66 µM
  TGI: > 100 µM
COLO 205 colon
  GI50: 19.6 µM
  TGI: 57.1 µM
DU-145 prostate
  GI50: 10.9 µM
  TGI: 77.7 µM
EKVX NSCLC
  GI50: 9.47 µM
  TGI: 36.6 µM
HCC-2998 colon
  GI50: 16.4 µM
  TGI: 49.3 µM
HCT-116 colon
  GI50: 4.3 µM
  TGI: 22.1 µM
HCT-15 colon
  GI50: 14.2 µM
  TGI: > 100 µM
HL-60(TB) leukemia
  GI50: 5.5 µM
  TGI: 28.2 µM
HOP-62 NSCLC
  GI50: 6.22 µM
  TGI: 44 µM
HOP-92 NSCLC
  GI50: 19.6 µM
  TGI: > 100 µM
HS 578T breast
  GI50: 4.59 µM
  TGI: 27.2 µM
HT29 colon
  GI50: 9.05 µM
  TGI: > 100 µM
IGROV1 ovarian
  GI50: 4.15 µM
  TGI: 28.7 µM
K-562 leukemia
  GI50: 8.25 µM
  TGI: > 100 µM
KM12 colon
  GI50: 2.85 µM
  TGI: > 100 µM
LOX IMVI melanoma
  GI50: 7.8 µM
  TGI: 25 µM
M14 melanoma
  GI50: 8.54 µM
  TGI: 44.2 µM
MALME-3M melanoma
  GI50: 8.87 µM
  TGI: 34.2 µM
MCF7 breast
  GI50: 5.38 µM
  TGI: 45.4 µM
MDA-MB-231 breast
  GI50: 13.1 µM
  TGI: > 100 µM
MDA-MB-435
  GI50: 5.36 µM
  TGI: > 100 µM
MOLT-4 leukemia
  GI50: 4.2 µM
  TGI: 40.4 µM
NCI-H226 lung
  GI50: 22.7 µM
  TGI: 67.2 µM
NCI-H23 lung
  GI50: 8.73 µM
  TGI: > 100 µM
NCI-H460 lung
  GI50: 10.4 µM
  TGI: 33.9 µM
NCI-H522 lung
  GI50: 3.45 µM
  TGI: 19.6 µM
NCI/ADR-RES ovarian
  GI50: 15.8 µM
  TGI: > 100 µM
OVCAR-3 ovarian
  GI50: 23.2 µM
  TGI: 75.8 µM
OVCAR-5 ovarian
  GI50: 19.2 µM
  TGI: 86.6 µM
OVCAR-8 ovarian
  GI50: 15.3 µM
  TGI: > 100 µM
PC-3 prostate
  GI50: 14.6 µM
  TGI: > 100 µM
RPMI-8226 leukemia
  GI50: 11.5 µM
  TGI: > 100 µM
RXF 393 renal
  GI50: 2.67 µM
  TGI: 12.2 µM
SF-268 CNS
  GI50: 12 µM
  TGI: 55.3 µM
SF-295 CNS
  GI50: 9.57 µM
  TGI: 69.8 µM
SF-539 CNS
  GI50: 7.55 µM
  TGI: 22.8 µM
SK-MEL-2 melanoma
  GI50: 13 µM
  TGI: 30.5 µM
SK-MEL-28 melanoma
  GI50: 12.8 µM
  TGI: 74.8 µM
SK-MEL-5 melanoma
  GI50: 9.12 µM
  TGI: 22.9 µM
SK-OV-3 ovarian
  GI50: 6.85 µM
  TGI: 38.5 µM
SN12C renal
  GI50: 8.25 µM
  TGI: 81.8 µM
SNB-19 CNS
  GI50: 26.8 µM
  TGI: > 100 µM
SNB-75 CNS
  GI50: 3.69 µM
  TGI: 16.9 µM
SR leukemia
  GI50: 5.25 µM
  TGI: > 100 µM
SW-620 colon
  GI50: 11.3 µM
  TGI: 48.7 µM
T-47D breast
  GI50: 9.51 µM
  TGI: 76.9 µM
TK-10 renal
  GI50: 10.1 µM
  TGI: 75 µM
U251 CNS
  GI50: 18.2 µM
  TGI: 56.9 µM
UACC-257 melanoma
  GI50: 25.9 µM
  TGI: > 100 µM
UACC-62 melanoma
  GI50: 5.54 µM
  TGI: 28.3 µM
UO-31 renal
  GI50: 4.26 µM
  TGI: 19.5 µM

## CCCCCCCCc1ccc(OCCOCC[N+](C)(C)CC)cc1 (tested in a mixture with another compound)
786-0 renal
  GI50: 14.2 µM
  TGI: 28.8 µM
A498 renal
  GI50: 9.16 µM
  TGI: 22 µM
A549 NSCLC
  GI50: 9.99 µM
  TGI: 23.1 µM
ACHN renal
  GI50: 15.6 µM
  TGI: 30.4 µM
BT-549 breast
  GI50: 3.03 µM
  TGI: 9.8 µM
CAKI-1 renal
  GI50: 54.8 µM
  TGI: > 100 µM
CCRF-CEM leukemia
  GI50: 3.2 µM
  TGI: 15.9 µM
COLO 205 colon
  GI50: 1.59 µM
  TGI: 3.21 µM
DU-145 prostate
  GI50: 8.09 µM
  TGI: 22.8 µM
EKVX NSCLC
  GI50: 4.6 µM
  TGI: 18.7 µM
HCC-2998 colon
  GI50: 3.74 µM
  TGI: 13.6 µM
HCT-116 colon
  GI50: 3.84 µM
  TGI: 14.8 µM
HCT-15 colon
  GI50: 24.8 µM
  TGI: > 100 µM
HL-60(TB) leukemia
  GI50: 1.47 µM
  TGI: 4.85 µM
HOP-62 NSCLC
  GI50: 5 µM
  TGI: 17.2 µM
HOP-92 NSCLC
  GI50: 1.17 µM
  TGI: 4.51 µM
HS 578T breast
  GI50: 3.2 µM
  TGI: 16.6 µM
HT29 colon
  GI50: 3.1 µM
  TGI: 13.5 µM
IGROV1 ovarian
  GI50: 3.74 µM
  TGI: 14.7 µM
K-562 leukemia
  GI50: 3.06 µM
  TGI: 15.4 µM
KM12 colon
  GI50: 3.72 µM
  TGI: 13.8 µM
LOX IMVI melanoma
  GI50: 2.7 µM
  TGI: 13.7 µM
M14 melanoma
  GI50: 4.07 µM
  TGI: 17.2 µM
MALME-3M melanoma
  GI50: 1.93 µM
  TGI: 6.44 µM
MCF7 breast
  GI50: 3.05 µM
  TGI: 12.6 µM
MDA-MB-231 breast
  GI50: 2.75 µM
  TGI: 11.3 µM
MDA-MB-435
  GI50: 2.91 µM
  TGI: 11.2 µM
MOLT-4 leukemia
  GI50: 4.39 µM
  TGI: 18.2 µM
NCI-H226 lung
  GI50: 4.31 µM
  TGI: 19.2 µM
NCI-H23 lung
  GI50: 3.42 µM
  TGI: 15.8 µM
NCI-H460 lung
  GI50: 3.94 µM
  TGI: 14.5 µM
NCI-H522 lung
  GI50: 2.18 µM
  TGI: 9.84 µM
NCI/ADR-RES ovarian
  GI50: > 100 µM
  TGI: > 100 µM
OVCAR-3 ovarian
  GI50: 2.79 µM
  TGI: 12.5 µM
OVCAR-4 ovarian
  GI50: 1.66 µM
  TGI: 10.8 µM
OVCAR-5 ovarian
  GI50: 7.5 µM
  TGI: 20.9 µM
OVCAR-8 ovarian
  GI50: 3.81 µM
  TGI: 15.4 µM
PC-3 prostate
  GI50: 3.12 µM
  TGI: 12.6 µM
RPMI-8226 leukemia
  GI50: 2.03 µM
  TGI: 6.82 µM
RXF 393 renal
  GI50: 10.5 µM
  TGI: 23.4 µM
SF-268 CNS
  GI50: 4.22 µM
  TGI: 16.9 µM
SF-295 CNS
  GI50: 13 µM
  TGI: 27 µM
SF-539 CNS
  GI50: 3.97 µM
  TGI: 15 µM
SK-MEL-2 melanoma
  GI50: 2.56 µM
  TGI: 8.53 µM
SK-MEL-28 melanoma
  GI50: 3.25 µM
  TGI: 15.4 µM
SK-MEL-5 melanoma
  GI50: 1.45 µM
  TGI: 3.06 µM
SK-OV-3 ovarian
  GI50: 7.74 µM
  TGI: 20.2 µM
SN12C renal
  GI50: 3.07 µM
  TGI: 11.9 µM
SNB-75 CNS
  GI50: 2.12 µM
  TGI: 9 µM
SR leukemia
  GI50: 3 µM
  TGI: 14.3 µM
SW-620 colon
  GI50: 3.97 µM
  TGI: 16.1 µM
T-47D breast
  GI50: 3.14 µM
  TGI: 13.7 µM
TK-10 renal
  GI50: 14.8 µM
  TGI: 29.1 µM
U251 CNS
  GI50: 1.8 µM
  TGI: 12.3 µM
UACC-257 melanoma
  GI50: 2.34 µM
  TGI: 6.8 µM
UACC-62 melanoma
  GI50: 1.88 µM
  TGI: 5.48 µM
UO-31 renal
  GI50: 17.5 µM
  TGI: 45.4 µM
